Active and inactive are the calls of the source.
How the values were obtained:
[1] = biological target: T1, SUMO-activating enzyme (Homo sapiens, UniProt Q9UBT2); test: SUMOylation inhibitor hit validation, confirmation, SUMOylation inhibitor project, biochemical, AlphaScreen (AID 2018); assay type: functional
[2] = biological target: T1, SUMO-activating enzyme; test: inhibitors of in vitro SUMOylation cascade, primary screen, biochemical, HTRF, uHTS (AID 2006); assay type: protein-complex assay
[3] = biological target: Induced myeloid leukemia cell differentiation protein Mcl-1 (Homo sapiens, UniProt Q07820); assay type: functional
[4] = biological target: T2, E3 ubiquitin-protein ligase XIAP (Homo sapiens, UniProt P98170); test: Counter Screen using XIAP-Bir3 for Chemical Antagonists of Bir1/2 domains of IAP-family anti-apoptotic proteins. [Related pubchem assays (depositor defined):AID1018, AID1449, AID1514, AID1638, AID1749, AID1750, AID488957, AID488963]
T2 sequence (P98170 whole entry): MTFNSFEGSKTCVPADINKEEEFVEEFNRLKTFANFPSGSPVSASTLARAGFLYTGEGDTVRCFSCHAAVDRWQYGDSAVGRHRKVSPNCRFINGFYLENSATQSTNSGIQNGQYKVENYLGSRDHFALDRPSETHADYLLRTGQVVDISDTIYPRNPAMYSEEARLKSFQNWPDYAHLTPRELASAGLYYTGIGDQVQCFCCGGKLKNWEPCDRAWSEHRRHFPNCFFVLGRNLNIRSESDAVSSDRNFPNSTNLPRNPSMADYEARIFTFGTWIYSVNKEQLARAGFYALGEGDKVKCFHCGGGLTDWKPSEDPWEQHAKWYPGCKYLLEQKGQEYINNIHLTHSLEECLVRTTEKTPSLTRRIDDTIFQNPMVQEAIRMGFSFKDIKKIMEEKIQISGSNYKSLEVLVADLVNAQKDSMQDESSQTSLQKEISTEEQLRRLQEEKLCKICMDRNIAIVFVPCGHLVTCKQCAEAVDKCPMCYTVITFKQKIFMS

[5] = biological target: T2, E3 ubiquitin-protein ligase XIAP; test: XIAP antagonists, biochemical, IAP family, fluorescence polarization (AID 1018); assay type: functional
[6] = HepG2 cell cytotoxicity, dose response, cytotoxicity control for non-replicating M. tuberculosis project (AID 489018); assay type: functional; conditions: Mycobacterium tuberculosis
[7] = biological target: Vasopressin V1a receptor (Homo sapiens, UniProt P37288); test: Counterscreen for Oxytocin Receptor (OXTR) agonists: Fluorescence-based cell-based high throughput dose response assay to identify agonists of the vasopressin 1 receptor (V1R). [Related pubchem assays: 2435 (Primary screen (OXTR agonists in singlicate)), 434991 (Counterscreen (V1R agonists in triplicate)), 2482 (Summary (OXTR agonists)) …; assay type: functional
[8] = biological target: Oxytocin receptor (Homo sapiens, UniProt P30559); test: Fluorescence-based cell-based high throughput dose response assay for agonists of the Oxytocin Receptor (OXTR). [Related pubchem assays: 2435 (Primary screen (OXTR agonists in singlicate)), 434991 (Counterscreen (V1R agonists in triplicate)), 2482 (Summary (OXTR agonists)), 434963 (Confirmation screen (OXTR agonists in triplicate))]; assay type: functional
[9] = Vero E6 cell cytotoxicity, dose response, cytotoxicity control for non-replicating M. tuberculosis project, secondary assay (AID 492998); assay type: functional, VeroE6; conditions: Vero C1008
[10] = THP-1 cell cytotoxicity, dose response, cytotoxicity control for non-replicating M. tuberculosis project (AID 489025); assay type: functional
[11] = cells; assay type: functional
[12] = biological target: T3, Cytochrome P450 2C9 (Homo sapiens, UniProt P11712)
T3 sequence (P11712 whole entry): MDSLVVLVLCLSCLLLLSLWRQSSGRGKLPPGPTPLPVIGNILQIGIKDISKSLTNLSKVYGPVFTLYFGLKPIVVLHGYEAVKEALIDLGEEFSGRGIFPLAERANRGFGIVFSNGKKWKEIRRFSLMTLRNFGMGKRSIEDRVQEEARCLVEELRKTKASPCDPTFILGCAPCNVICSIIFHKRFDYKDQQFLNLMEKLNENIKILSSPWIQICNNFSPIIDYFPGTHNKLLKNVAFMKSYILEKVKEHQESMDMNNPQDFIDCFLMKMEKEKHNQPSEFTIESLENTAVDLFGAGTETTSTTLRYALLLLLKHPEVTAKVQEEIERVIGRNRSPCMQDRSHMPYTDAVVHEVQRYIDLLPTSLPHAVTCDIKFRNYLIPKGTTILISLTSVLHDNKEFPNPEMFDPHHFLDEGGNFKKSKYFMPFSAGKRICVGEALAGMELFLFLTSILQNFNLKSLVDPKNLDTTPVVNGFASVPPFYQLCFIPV

[13] = biological target: Photoreceptor-specific nuclear receptor (Homo sapiens, UniProt Q9Y5X4); test: NR2E3 inverse agonists, dose response, biochemical, TR-FRET (AID 463256); assay type: functional
[14] = biological target: Peroxisome proliferator-activated receptor gamma/Nuclear receptor coactivator 1 (Homo sapiens, UniProt P37231); test: TR-FRET dose response biochemical High Throughput Screening assay for agonists of the steroid receptor coactivator 1 (SRC-1) recruitment by the peroxisome proliferator-activated receptor gamma (PPAR gamma): non-selective agonists. [Related pubchem assays (depositor defined):AID1300, AID1808, AID504735, AID631]; assay type: protein assay
Sequence of Peroxisome proliferator-activated receptor gamma/Nuclear receptor coactivator 1 (P37231 whole entry): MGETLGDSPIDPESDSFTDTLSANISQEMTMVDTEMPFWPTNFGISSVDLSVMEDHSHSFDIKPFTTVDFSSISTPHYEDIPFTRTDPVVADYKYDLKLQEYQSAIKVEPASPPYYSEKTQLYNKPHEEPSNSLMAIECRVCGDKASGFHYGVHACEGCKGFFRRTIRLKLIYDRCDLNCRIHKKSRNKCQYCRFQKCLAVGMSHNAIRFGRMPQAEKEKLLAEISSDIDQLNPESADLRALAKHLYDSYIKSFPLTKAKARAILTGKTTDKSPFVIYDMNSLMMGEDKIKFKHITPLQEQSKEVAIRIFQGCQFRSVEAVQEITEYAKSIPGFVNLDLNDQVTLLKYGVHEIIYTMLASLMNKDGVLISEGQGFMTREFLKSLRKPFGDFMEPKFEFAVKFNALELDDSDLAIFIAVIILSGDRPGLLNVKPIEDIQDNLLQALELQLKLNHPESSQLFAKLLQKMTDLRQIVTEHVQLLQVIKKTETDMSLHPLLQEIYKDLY
Sequence of Peroxisome proliferator-activated receptor gamma/Nuclear receptor coactivator 1 (Q15788 whole entry, further chain): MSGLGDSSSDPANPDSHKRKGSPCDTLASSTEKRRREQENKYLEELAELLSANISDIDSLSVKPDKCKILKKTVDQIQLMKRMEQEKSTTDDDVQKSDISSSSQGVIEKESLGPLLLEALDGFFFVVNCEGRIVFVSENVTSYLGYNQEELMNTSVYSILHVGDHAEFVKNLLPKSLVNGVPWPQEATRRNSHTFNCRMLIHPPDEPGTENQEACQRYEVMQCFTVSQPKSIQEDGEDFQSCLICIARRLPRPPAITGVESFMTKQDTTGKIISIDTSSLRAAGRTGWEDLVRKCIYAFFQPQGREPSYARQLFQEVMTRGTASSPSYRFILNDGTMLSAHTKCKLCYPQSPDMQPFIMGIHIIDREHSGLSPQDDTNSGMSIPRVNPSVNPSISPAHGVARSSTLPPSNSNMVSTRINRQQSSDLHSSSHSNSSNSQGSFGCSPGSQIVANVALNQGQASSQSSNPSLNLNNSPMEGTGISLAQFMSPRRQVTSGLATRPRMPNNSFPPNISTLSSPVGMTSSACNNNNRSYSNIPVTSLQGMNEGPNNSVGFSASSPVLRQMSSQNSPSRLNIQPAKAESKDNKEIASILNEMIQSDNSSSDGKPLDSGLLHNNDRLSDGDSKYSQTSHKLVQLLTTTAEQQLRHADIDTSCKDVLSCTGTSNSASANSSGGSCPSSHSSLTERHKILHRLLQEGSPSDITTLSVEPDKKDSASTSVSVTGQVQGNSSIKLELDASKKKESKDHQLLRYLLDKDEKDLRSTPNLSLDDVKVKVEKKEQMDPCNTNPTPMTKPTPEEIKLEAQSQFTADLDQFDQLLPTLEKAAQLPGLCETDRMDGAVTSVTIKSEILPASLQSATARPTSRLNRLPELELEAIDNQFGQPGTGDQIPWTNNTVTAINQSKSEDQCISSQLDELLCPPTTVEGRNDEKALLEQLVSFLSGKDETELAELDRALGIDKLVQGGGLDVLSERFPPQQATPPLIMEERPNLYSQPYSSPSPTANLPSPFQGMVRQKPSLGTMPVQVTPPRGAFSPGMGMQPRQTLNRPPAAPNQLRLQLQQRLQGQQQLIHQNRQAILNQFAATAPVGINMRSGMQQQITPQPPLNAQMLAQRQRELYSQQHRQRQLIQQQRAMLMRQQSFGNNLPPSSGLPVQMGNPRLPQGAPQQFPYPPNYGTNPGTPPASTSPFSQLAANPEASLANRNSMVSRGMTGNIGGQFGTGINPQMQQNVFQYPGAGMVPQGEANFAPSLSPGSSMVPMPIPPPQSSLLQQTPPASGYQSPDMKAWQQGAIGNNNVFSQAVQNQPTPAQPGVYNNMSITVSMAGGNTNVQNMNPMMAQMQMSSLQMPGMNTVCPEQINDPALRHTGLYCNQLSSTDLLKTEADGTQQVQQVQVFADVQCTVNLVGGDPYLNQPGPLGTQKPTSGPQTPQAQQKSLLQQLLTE

[15] = (§1) Counterscreen for antagonists of the orexin 1 receptor (OX1R; HCRTR1): Fluorescence-based cell-based high throughput dose response assay to identify antagonists of the parental CHO cell line. [Related pubchem assays (depositor defined):AID434989, AID435008, AID463079, AID485270, AID492963, AID492964, AID492965, AID493232, AID504699, AID504701]; assay type: functional
[16] = biological target: Peroxisome proliferator-activated receptor gamma/Nuclear receptor coactivator 2 (Homo sapiens, UniProt P37231); test: (§2) TR-FRET dose response biochemical High Throughput Screening assay for agonists of the steroid receptor coactivator 2 (SRC-2) recruitment by the peroxisome proliferator-activated receptor gamma (PPAR gamma): non-selective agonists. [Related pubchem assays: 1297, 1032 ]; assay type: functional
[17] = biological target: T4, Orexin receptor type 2 (Homo sapiens, UniProt O43614); test: Counterscreen assay for antagonists of the orexin 1 receptor (OX1R; HCRTR1): Homogeneous Time Resolved Fluorescence (HTRF)-based cell-based dose response assay for antagonists of the orexin 2 receptor (OX2R; HCRTR2), run by assay provider.; assay type: functional
T4 sequence (O43614 whole entry): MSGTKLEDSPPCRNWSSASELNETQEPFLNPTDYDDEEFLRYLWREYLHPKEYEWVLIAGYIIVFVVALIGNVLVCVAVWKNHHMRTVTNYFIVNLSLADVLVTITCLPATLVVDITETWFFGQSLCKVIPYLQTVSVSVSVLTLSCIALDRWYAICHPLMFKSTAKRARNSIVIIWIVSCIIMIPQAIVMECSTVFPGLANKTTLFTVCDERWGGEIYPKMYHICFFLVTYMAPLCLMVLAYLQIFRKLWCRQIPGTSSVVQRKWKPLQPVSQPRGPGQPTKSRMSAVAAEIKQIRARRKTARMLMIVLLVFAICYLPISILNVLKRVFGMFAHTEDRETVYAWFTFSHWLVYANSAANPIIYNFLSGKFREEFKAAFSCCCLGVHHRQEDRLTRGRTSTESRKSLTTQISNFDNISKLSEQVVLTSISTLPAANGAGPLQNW

[18] = system: CHO-K1; test: as §1, with “Homogeneous time resolved fluorescence (HTRF)-based” for “Fluorescence-based”, “cell-based” for “cell-based high throughput”, “CHO-K1” for “CHO”; assay type: functional; conditions: Cricetulus griseus;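 also: potency for inhibition of ATP-stimulated IP1 production as antagonists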
[19] = biological target: Peroxisome proliferator-activated receptor gamma/Nuclear receptor corepressor 2 (Homo sapiens, UniProt P37231+Q9Y618); test: Counterscreen for NR2E3 inverse agonists: TR-FRET-based biochemical high throughput dose response assay to identify inverse agonists of the interaction between peroxisome proliferator-activated receptor gamma (PPARg) and nuclear receptor co-repressor 2 (NCOR2).; assay type: functional
[20] = biological target: T4, Orexin receptor type 2; test: Counterscreen assay for antagonists of the orexin 1 receptor (OX1R; HCRTR1): Fluorescence-based cell-based dose response assay for antagonists of the orexin 2 receptor (OX2R; HCRTR2), run by assay provider.; assay type: functional
[21] = biological target: T5, Orexin/Hypocretin receptor type 1 (Homo sapiens, UniProt O43613); test: (§3) Fluorescence-based cell-based high throughput dose response assay for antagonists of the orexin 1 receptor (OX1R; HCRTR1). [Related pubchem assays (depositor defined):AID434989, AID435008, AID463079, AID485270, AID492963, AID492964, AID492965, AID493232, AID504717, AID504718]; assay type: functional
T5 sequence (O43613 whole entry): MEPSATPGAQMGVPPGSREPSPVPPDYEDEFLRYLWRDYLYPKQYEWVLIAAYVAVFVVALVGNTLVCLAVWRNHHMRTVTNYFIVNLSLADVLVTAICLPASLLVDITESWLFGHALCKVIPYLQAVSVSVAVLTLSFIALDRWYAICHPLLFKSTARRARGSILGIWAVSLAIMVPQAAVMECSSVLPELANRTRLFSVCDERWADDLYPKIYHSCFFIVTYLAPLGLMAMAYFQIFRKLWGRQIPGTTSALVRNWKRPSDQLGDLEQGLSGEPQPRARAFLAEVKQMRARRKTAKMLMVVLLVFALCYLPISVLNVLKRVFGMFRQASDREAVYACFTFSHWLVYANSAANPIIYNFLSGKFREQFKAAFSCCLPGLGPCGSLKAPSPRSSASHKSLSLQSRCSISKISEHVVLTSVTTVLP

[22] = biological target: Peroxisome proliferator-activated receptor gamma/Nuclear receptor coactivator 3 (Homo sapiens, UniProt P37231); test: as §2, with “3 (SRC-3)” for “2 (SRC-2)”, “1301 (Confirmation screen.), 1048 (Primary screen.)]” for “1297, 1032 ]”; assay type: functional
Sequence of Peroxisome proliferator-activated receptor gamma/Nuclear receptor coactivator 3 (P37231 whole entry): as the sequence (P37231 whole entry) above
Sequence of Peroxisome proliferator-activated receptor gamma/Nuclear receptor coactivator 3 (Q9Y6Q9 whole entry, further chain): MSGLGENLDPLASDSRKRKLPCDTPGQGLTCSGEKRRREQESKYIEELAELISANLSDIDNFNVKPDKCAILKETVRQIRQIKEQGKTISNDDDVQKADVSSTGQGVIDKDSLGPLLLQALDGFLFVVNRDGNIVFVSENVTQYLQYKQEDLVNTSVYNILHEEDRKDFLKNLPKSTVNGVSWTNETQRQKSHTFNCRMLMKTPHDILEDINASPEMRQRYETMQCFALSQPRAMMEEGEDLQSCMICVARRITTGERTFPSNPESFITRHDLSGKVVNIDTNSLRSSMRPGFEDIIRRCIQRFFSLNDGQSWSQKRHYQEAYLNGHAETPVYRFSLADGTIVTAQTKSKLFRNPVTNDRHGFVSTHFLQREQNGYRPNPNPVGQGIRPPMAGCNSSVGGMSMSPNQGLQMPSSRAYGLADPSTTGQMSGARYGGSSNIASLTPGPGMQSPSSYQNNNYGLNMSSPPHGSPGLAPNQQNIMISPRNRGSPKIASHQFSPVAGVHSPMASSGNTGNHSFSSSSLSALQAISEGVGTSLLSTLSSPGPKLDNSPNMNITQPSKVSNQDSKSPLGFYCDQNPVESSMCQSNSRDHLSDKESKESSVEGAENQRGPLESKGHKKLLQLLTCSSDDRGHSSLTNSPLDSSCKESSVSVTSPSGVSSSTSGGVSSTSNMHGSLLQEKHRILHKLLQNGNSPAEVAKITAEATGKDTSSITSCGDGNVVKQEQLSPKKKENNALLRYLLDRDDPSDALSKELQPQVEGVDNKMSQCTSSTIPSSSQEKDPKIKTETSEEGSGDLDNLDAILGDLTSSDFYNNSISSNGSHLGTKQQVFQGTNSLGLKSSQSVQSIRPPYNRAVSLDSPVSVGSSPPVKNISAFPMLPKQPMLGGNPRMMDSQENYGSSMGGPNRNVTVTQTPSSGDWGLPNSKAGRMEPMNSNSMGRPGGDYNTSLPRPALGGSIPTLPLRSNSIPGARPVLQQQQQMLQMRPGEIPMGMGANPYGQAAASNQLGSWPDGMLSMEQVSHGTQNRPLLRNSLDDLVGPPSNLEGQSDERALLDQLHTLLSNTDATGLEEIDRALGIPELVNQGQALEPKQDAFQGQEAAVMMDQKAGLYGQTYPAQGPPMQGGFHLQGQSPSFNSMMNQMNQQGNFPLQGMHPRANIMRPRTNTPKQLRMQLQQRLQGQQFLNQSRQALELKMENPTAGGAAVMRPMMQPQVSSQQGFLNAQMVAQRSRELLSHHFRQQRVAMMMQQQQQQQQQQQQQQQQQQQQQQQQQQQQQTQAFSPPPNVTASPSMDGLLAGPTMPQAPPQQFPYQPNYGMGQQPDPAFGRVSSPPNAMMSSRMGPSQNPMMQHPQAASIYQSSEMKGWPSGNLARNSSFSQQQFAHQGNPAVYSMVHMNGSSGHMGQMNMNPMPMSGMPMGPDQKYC

[23] = biological target: T5, Orexin/Hypocretin receptor type 1; test: as §3, with “Homogeneous Time Resolved Fluorescence (HTRF)-based” for “Fluorescence-based”; assay type: functional
[24] = biological target: CAAX prenyl protease 1 (Saccharomyces cerevisiae S288c, UniProt P47154); test: Ste24 protease inhibitors, dose response, biochemical, S. cerevisiae, plate reader, cherry-pick (AID 488815)
[25] = biological target: Cytochrome P450 2D6 (Homo sapiens, UniProt P10635);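 also: CYP2D6 member of a cytochrome P450 panel assay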
[26] = biological target: Cytochrome P450 3A4 (Homo sapiens, UniProt P08684);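 also: CYP3A4 tested as one member of a cytochrome P450 panel screen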
[27] = biological target: T3, Cytochrome P450 2C9; remark: listed apart in the source
[28] = Luminescence-based cell-based high throughput dose response assay to identify activators of the DAF-12 from the parasite S. stercoralis (ssDAF-12).; assay type: functional
[29] = HEK293T cytotoxicity, dose response, cytotoxicity control for miR-122 modulator project, cell-based, activator set, cherry-pick (AID 720690); assay type: functional;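 also: HEK293T human cells scored for general mammalian cytotoxicity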
[30] = biological target: T6, Bcl-2-related protein A1 (Mus musculus, UniProt Q07440); assay type: functional;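 also: confirmatory dose–response counterscreen on Bfl-1, used to check hits from a UBC13 polyubiquitin inhibitor campaign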
T6 sequence (Q07440 whole entry): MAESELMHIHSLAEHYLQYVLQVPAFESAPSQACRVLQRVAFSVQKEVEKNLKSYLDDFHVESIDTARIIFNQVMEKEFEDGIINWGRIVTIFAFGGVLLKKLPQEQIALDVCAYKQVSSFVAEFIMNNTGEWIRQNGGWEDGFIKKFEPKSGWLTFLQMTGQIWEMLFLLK

[31] = biological target: T7, Ubiquitin-conjugating enzyme E2 N (Homo sapiens, UniProt P61088); assay type: functional
T7 sequence (P61088 whole entry): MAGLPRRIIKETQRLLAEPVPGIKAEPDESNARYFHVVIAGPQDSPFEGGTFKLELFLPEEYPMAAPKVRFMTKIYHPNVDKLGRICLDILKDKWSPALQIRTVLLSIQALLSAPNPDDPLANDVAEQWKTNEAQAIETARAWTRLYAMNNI

[32] = inhibitors of intracellular T. cruzi replication, confirmation, NIH3T3 host cells, beta-gal luminescence (AID 2044); assay type: functional, cell-based;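 also: intracellular parasites grown in NIH/3T3 mouse fibroblasts as host cells; luminescent beta-galactosidase reporter signal from transgenic T. cruzi replicating inside host cells; inhibitors lower the luminescence signal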
[33] = biological target: T7, Ubiquitin-conjugating enzyme E2 N; assay type: functional; remark: listed apart in the source
[34] = miR-122 activators in hepatoma reporter cells, dose response, cell-based, Huh7 psiCHECK-miR122, Renilla luciferase, cherry-picked (AID 651956); assay type: functional;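 also: huh7 hepatoma cells stably carrying a psiCHECK-2 miR-122 sensor plasmid; renilla luciferase signal reporting endogenous miR-122 activity after 48 h compound exposure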
[35] = cytotoxicity toward NIH3T3 fibroblasts, dose response, counter-screen, cell-based, ATP luminescence, mouse fibroblasts (AID 2010); assay type: functional;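 also: cells exposed to compound for about 90 hours before reading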
[36] = biological target: Glyceraldehyde-3-phosphate dehydrogenase (Homo sapiens, UniProt P04406)
[37] = biological target: T8, Alkaline phosphatase, tissue-nonspecific isozyme (Homo sapiens, UniProt P05186); test: human TNAP enzyme inhibitors, SAR follow-up, biochemical, luminescent, dose response (AID 1056)
T8 sequence (P05186 whole entry): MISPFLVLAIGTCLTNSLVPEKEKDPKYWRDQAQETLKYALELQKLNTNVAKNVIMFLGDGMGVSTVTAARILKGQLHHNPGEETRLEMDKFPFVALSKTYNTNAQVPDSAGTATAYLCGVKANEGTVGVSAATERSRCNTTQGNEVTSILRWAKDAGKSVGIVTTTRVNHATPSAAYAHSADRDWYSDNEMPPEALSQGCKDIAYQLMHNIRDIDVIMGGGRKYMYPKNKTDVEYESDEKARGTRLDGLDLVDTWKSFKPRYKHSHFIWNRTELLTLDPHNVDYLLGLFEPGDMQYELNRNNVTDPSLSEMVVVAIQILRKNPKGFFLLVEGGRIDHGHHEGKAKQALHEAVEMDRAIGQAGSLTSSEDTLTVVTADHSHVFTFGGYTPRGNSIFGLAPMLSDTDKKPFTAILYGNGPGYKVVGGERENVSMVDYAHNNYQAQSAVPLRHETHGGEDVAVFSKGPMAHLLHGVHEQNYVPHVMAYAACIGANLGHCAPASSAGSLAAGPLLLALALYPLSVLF

COc1ccc(/C=C2/SC(=S)N(c3ccc(S(=O)(=O)Nc4nccs4)cc3)C2=O)cc1
IC50 [1]: 1.18 µM (active) | IC50 [2]: 5.9 µM (active) | IC50 [3]: 1.98 µM (active)

COc1ccc(CC2(CO)CCN(Cc3cnn(C)c3)CC2)cc1
IC50 [4]: > 100 µM (inactive) | IC50 [5]: > 100 µM (not active)

Clc1ccc2c(c1)C(N1CCNCC1)Cc1ccccc1S2 (stereo not given)
CC50 [6]: 8.65 µM (active) | EC50 [7]: 21.3 µM (not active) | EC50 [8]: > 9.97 µM (active) | CC50 [9]: 11.5 µM (active) | CC50 [10]: 12 µM (active) | IC50 [11]: 15.5 µM (active)

CCOc1ccccc1Oc1coc2cc(OC)ccc2c1=O
AC50 [12]: inconclusive

NS(=O)(=O)c1ccc(CNC(=O)c2cc(-c3ccccn3)nc3ccc(Cl)cc23)cc1
IC50 [13]: > 4.43 µM (active) | EC50 [14]: 6.13 µM (active) | IC50 [15]: > 49.7 µM (inactive) | EC50 [16]: 5.82 µM (active) | IC50 [17]: > 50 µM (inactive) | IC50 [18]: > 66.2 µM (inactive) | IC50 [19]: > 39.9 µM (not active) | IC50 [20]: 30.1 µM (inactive) | IC50 [21]: > 49.7 µM (inactive) | EC50 [22]: 17.6 µM (not active) | IC50 [23]: 2.46 µM (active)

COc1cc(OC)cc(-c2ncc3ccccn23)c1
AC50 [24]: 5.47 µM (active)

Br/C(=N\N=c1/nn[nH][nH]1)c1ccncc1
AC50 [25]: inconclusive | AC50 [26]: 5.01 µM (inconclusive)

CC(C)c1ccc(C(O)(C(=O)O)c2ccc(C(C)C)cc2)cc1
AC50 [25]: inconclusive | AC50 [27]: 3.98 µM (inconclusive)

Cc1c(C(=O)N2CCc3ccccc32)oc2ccccc12
IC50 [4]: > 100 µM (inactive) | IC50 [5]: > 100 µM (not active) | IC50 [28]: > 67.6 µM (inactive)

CCN(CC)CCNC(=O)c1ccc(NC(=O)c2cn(-c3ccc(F)cc3)nc2-c2cccc(OC)c2)cc1
AC50 [29]: 15.8 µM (active) | IC50 [30]: > 20 µM (inactive) | IC50 [31]: 8.8 µM (active) | EC50 [32]: 3.25 µM (active) | IC50 [33]: 14.6 µM (active) | AC50 [34]: 11.1 µM (active) | EC50 [35]: > 60 µM (not active)

Cc1cc(C)cc(N2CC(=O)C(c3nc(O)c4ccccc4n3)=C2N)c1
AC50 [24]: 14.7 µM (active)

COc1ccccc1C(=O)Nc1cc2c(ccc3ccccc32)oc1=O
AC50 [12]: inconclusive

O=C1C2CCCCC2C(=O)N1c1ncn[nH]1 (stereo not given)
IC50 [36]: > 100 µM (not active) | IC50 [37]: > 100 µM (inactive)

O=c1c2ccccc2c(-c2nnc(S)o2)nn1Cc1ccccc1
EC50 [14]: 10.3 µM (inactive) | EC50 [16]: 11.6 µM (not active) | EC50 [22]: 63.6 µM (not active)

— ChEMBL document CHEMBL1201862, “PubChem BioAssay data set” (2004)
